In general, pIC50 refers to −log10 of the IC50, conventionally taken in molar units.

Structures are written as SMILES. pIC50: −log10 of the molar value. Where only a bound is given, the exact number is not on record here.

The assay addresses one or more of HDAC-4, HDAC-5, HDAC-6, HDAC-7, HDAC-8, HDAC-9, HDAC-10 and HDAC-11. The assay is described as follows: Inhibition of histone deacetylase enzymatic activity (summary statement over isoforms). In kind it is biochemical. The note with it: Table 3, selected examples; HDAC isoform not given. An outline of the steps:
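HDAC enzyme mix with compound was preincubated 5 min at room temperature. Reaction was started at 37 °C with Boc-Lys(trifluoroacetyl)-AMC substrate and run 20-30 min. It was stopped with trypsin (1 mg/mL) plus a known HDAC inhibitor to release the fluorogenic AMC.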

In the case of `O=C(NO)C(c1ccccc1)c1ccc(-c2ccc(Cl)cc2)cc1` (centres unmarked) [Compound 2-112, 2-(4′-chlorobiphenyl-4-yl)-N-hydroxy-2-phenylacetamide], the pIC50 is over 6.00.

Consider `O=C(NO)C(c1ccccc1)c1ccc(-c2ccc3c(c2)CCO3)cc1` (centres unmarked) [Compound 2-113, 2-(4-(2,3-dihydrobenzofuran-5-yl)phenyl)-N-hydroxy-2-phenylacetamide], for which the pIC50 is over 6.00.

In the case of `COc1ccc(-c2ccc(C(C(=O)NO)c3ccccc3)cc2)cc1OC` (centres unmarked) [Compound 2-114, 2-(3′,4′-dimethoxybiphenyl-4-yl)-N-hydroxy-2-phenylacetamide], the pIC50 is over 6.00.

Turning to `CCSc1ccc(-c2ccc(C(C(=O)NO)c3ccccc3)cc2)cc1` (centres unmarked) [Compound 2-115, 2-(4′-(ethylthio)biphenyl-4-yl)-N-hydroxy-2-phenylacetamide], the pIC50 was over 6.00.

In the case of `CN(C)C(=O)c1ccc(-c2ccc(C(C(=O)NO)c3ccccc3)cc2)cc1` (centres unmarked) [Compound 2-116, 4′-(2-(hydroxyamino)-2-oxo-1-phenylethyl)-N,N-dimethylbiphenyl-4-carboxamide], the pIC50 is over 6.00.

For `O=C(NO)C(c1ccccc1)c1ccc(-c2ccc(Oc3ccccc3)cc2)cc1` (centres unmarked) [Compound 2-117, N-hydroxy-2-(4′-phenoxybiphenyl-4-yl)-2-phenylacetamide], the pIC50 was over 6.00.

Take `CC(C)=CCOc1cccc(C(C(=O)NO)c2ccccc2)c1` (centres unmarked) [Compound 3-5, N-hydroxy-2-(3-(3-methylbut-2-enyloxy)phenyl)-2-phenylacetamide]: the pIC50 was over 6.00.

In turn, `COc1ccc(COc2cccc(C(C(=O)NO)c3ccccc3)c2)cc1` (centres unmarked) [Compound 3-6, N-hydroxy-2-(3-(4-methoxybenzyloxy)phenyl)-2-phenylacetamide] gave a pIC50 of over 6.00.

In turn, `CC(Oc1cccc(C(C(=O)NO)c2ccccc2)c1)c1ccccc1` (centres unmarked) [Compound 3-8, N-hydroxy-2-phenyl-2-(3-(1-phenylethoxy)phenyl)acetamide] gave a pIC50 of 4.82 to 6.00.

`O=C(NO)C(c1ccccc1)c1cccc(OC/C=C/c2ccccc2)c1` (centres unmarked) [Compound 3-9, (E)-2-(3-(cinnamyloxy)phenyl)-N-hydroxy-2-phenylacetamide] gave a pIC50 of over 6.00.

`O=C(NO)C(c1ccccc1)c1cccc(OCc2cccc(Cl)c2)c1` (centres unmarked) [Compound 3-10, 2-(3-(3-chlorobenzyloxy)phenyl)-N-hydroxy-2-phenylacetamide] had a pIC50 of over 6.00.

For the compound `O=C(NO)C(c1ccccc1)c1cccc(N2CCN(Cc3ccncc3)CC2)c1` (centres unmarked) [Compound 3-12, N-hydroxy-2-phenyl-2-(3-(4-(pyridin-4-ylmethyl)piperazin-1-yl)phenyl)acetamide], the pIC50 is over 6.00.

Take `CC(=O)Nc1ccc(C(C(=O)NO)c2ccccc2)cc1` (centres unmarked) [Compound 3-13, 2-(4-acetamidophenyl)-N-hydroxy-2-phenylacetamide]: the pIC50 is over 6.00.

The compound `O=C(Nc1cccc(C(C(=O)NO)c2ccccc2)c1)c1ccnc(Cl)c1` (centres unmarked) [Compound 3-14, 2-chloro-N-(3-(2-(hydroxyamino)-2-oxo-1-phenylethyl)phenyl)isonicotinamide] showed a pIC50 of 4.82 to 6.00.

As to `CN(C)CCCOc1cccc(C(C(=O)NO)c2ccccc2)c1` (centres unmarked) [Compound 3-15, 2-(3-(3-(dimethylamino)propoxy)phenyl)-N-hydroxy-2-phenylacetamide], the pIC50 was over 6.00.

Take `CN(C)CCCOc1ccc(C(C(=O)NO)c2ccccc2)cc1` (centres unmarked) [Compound 3-16, 2-(4-(3-(dimethylamino)propoxy)phenyl)-N-hydroxy-2-phenylacetamide]: the pIC50 is over 6.00.

With `CC(COc1cccc(C(C(=O)NO)c2ccccc2)c1)CN(C)C` (centres unmarked) [Compound 3-17, 2-(3-(3-(dimethylamino)-2-methylpropoxy)phenyl)-N-hydroxy-2-phenylacetamide], the pIC50 was over 6.00.

`CC(COc1ccc(C(C(=O)NO)c2ccccc2)cc1)CN(C)C` (centres unmarked) [Compound 3-18, 2-(4-(3-(dimethylamino)-2-methylpropoxy)phenyl)-N-hydroxy-2-phenylacetamide]: the pIC50 is 4.82 to 6.00.

For `O=C(NO)C(c1ccccc1)c1cccc(OCCN2CCCC2)c1` (centres unmarked) [Compound 3-19, N-hydroxy-2-phenyl-2-(3-(2-(pyrrolidin-1-yl)ethoxy)phenyl)acetamide], the pIC50 is over 6.00.

Compound `CN1CCCC1CCOc1cccc(C(C(=O)NO)c2ccccc2)c1` (centres unmarked) [Compound 3-20, N-hydroxy-2-(3-(2-(1-methylpyrrolidin-2-yl)ethoxy)phenyl)-2-phenylacetamide] showed a pIC50 of over 6.00.

As to `COc1cccc(C(C(=O)NO)c2ccccc2)c1` (centres unmarked) [Compound 3-21, N-hydroxy-2-(3-methoxyphenyl)-2-phenylacetamide], the pIC50 was 4.82 to 6.00.

Take `CCOc1cccc(C(C(=O)NO)c2ccccc2)c1` (centres unmarked) [Compound 3-22, 2-(3-ethoxyphenyl)-N-hydroxy-2-phenylacetamide]: the pIC50 was over 6.00.

In turn, `C=CCOc1cccc(C(C(=O)NO)c2ccccc2)c1` (centres unmarked) [Compound 3-24, 2-(3-(allyloxy)phenyl)-N-hydroxy-2-phenylacetamide] had a pIC50 of 4.82 to 6.00.

Turning to `O=C(NO)C(c1ccccc1)c1cccc(OCC2CC2)c1` (centres unmarked) [Compound 3-25, 2-(3-(cyclopropylmethoxy)phenyl)-N-hydroxy-2-phenylacetamide], the pIC50 is 4.82 to 6.00.

As for `C=CCCOc1cccc(C(C(=O)NO)c2ccccc2)c1` (centres unmarked) [Compound 3-26, 2-(3-(but-3-enyloxy)phenyl)-N-hydroxy-2-phenylacetamide], the pIC50 is 4.82 to 6.00.

`COCCOc1cccc(C(C(=O)NO)c2ccccc2)c1` (centres unmarked) [Compound 3-27, N-hydroxy-2-(3-(2-methoxyethoxy)phenyl)-2-phenylacetamide] gave a pIC50 of 4.82 to 6.00.

Regarding `O=C(NO)C(c1ccccc1)c1cccc(OC2CCCC2)c1` (centres unmarked) [Compound 3-29, 2-(3-(cyclopentyloxy)phenyl)-N-hydroxy-2-phenylacetamide], the pIC50 is 4.82 to 6.00.

For `CC(C)CCOc1cccc(C(C(=O)NO)c2ccccc2)c1` (centres unmarked) [Compound 3-30, N-hydroxy-2-(3-(isopentyloxy)phenyl)-2-phenylacetamide], the pIC50 was 4.82 to 6.00.

The compound `CCC(CC)COc1cccc(C(C(=O)NO)c2ccccc2)c1` (centres unmarked) [Compound 3-31, 2-(3-(2-ethylbutoxy)phenyl)-N-hydroxy-2-phenylacetamide] showed a pIC50 of 4.82 to 6.00.

Compound `O=C(NO)C(c1ccccc1)c1cccc(OCC2CCCCC2)c1` (centres unmarked) [Compound 3-32, 2-(3-(cyclohexylmethoxy)phenyl)-N-hydroxy-2-phenylacetamide] showed a pIC50 of 4.82 to 6.00.

Turning to `Cc1cccc(COc2cccc(C(C(=O)NO)c3ccccc3)c2)c1` (centres unmarked) [Compound 3-33, N-hydroxy-2-(3-(3-methylbenzyloxy)phenyl)-2-phenylacetamide], the pIC50 was 4.82 to 6.00.

Turning to `O=C(NO)C(c1ccccc1)c1cccc(OCc2ccccc2F)c1` (centres unmarked) [Compound 3-34, 2-(3-(2-fluorobenzyloxy)phenyl)-N-hydroxy-2-phenylacetamide], the pIC50 was over 6.00.

`Cc1cc(C)cc(COc2cccc(C(C(=O)NO)c3ccccc3)c2)c1` (centres unmarked) [Compound 3-35, 2-(3-(3,5-dimethylbenzyloxy)phenyl)-N-hydroxy-2-phenylacetamide] gave a pIC50 of over 6.00.

`O=C(NO)C(c1ccccc1)c1cccc(OCCCc2ccccc2)c1` (centres unmarked) [Compound 3-36, N-hydroxy-2-phenyl-2-(3-(3-phenylpropoxy)phenyl)acetamide]: the pIC50 was over 6.00.

`O=C(NO)C(c1ccccc1)c1cccc(OCc2cccc(C(F)(F)F)c2)c1` (centres unmarked) [Compound 3-42, N-hydroxy-2-phenyl-2-(3-(3-(trifluoromethyl)benzyloxy)phenyl)acetamide] had a pIC50 of over 6.00.

Regarding `COc1ccc(C(C(=O)NO)c2ccccc2)cc1` (centres unmarked) [Compound 3-43, N-hydroxy-2-(4-methoxyphenyl)-2-phenylacetamide], the pIC50 was over 6.00.

Turning to `CCOc1ccc(C(C(=O)NO)c2ccccc2)cc1` (centres unmarked) [Compound 3-44, 2-(4-ethoxyphenyl)-N-hydroxy-2-phenylacetamide], the pIC50 is over 6.00.

Compound `C#CCOc1ccc(C(C(=O)NO)c2ccccc2)cc1` (centres unmarked) [Compound 3-45, N-hydroxy-2-phenyl-2-(4-(prop-2-ynyloxy)phenyl)acetamide] showed a pIC50 of over 6.00.

`C=CCOc1ccc(C(C(=O)NO)c2ccccc2)cc1` (centres unmarked) [Compound 3-46, 2-(4-(allyloxy)phenyl)-N-hydroxy-2-phenylacetamide] had a pIC50 of over 6.00.

For `CC(C)Oc1ccc(C(C(=O)NO)c2ccccc2)cc1` (centres unmarked) [Compound 3-47, N-hydroxy-2-(4-isopropoxyphenyl)-2-phenylacetamide], the pIC50 was over 6.00.

Compound `C=CCCOc1ccc(C(C(=O)NO)c2ccccc2)cc1` (centres unmarked) [Compound 3-49, 2-(4-(but-3-enyloxy)phenyl)-N-hydroxy-2-phenylacetamide] gave a pIC50 of over 6.00.

Compound `COCCOc1ccc(C(C(=O)NO)c2ccccc2)cc1` (centres unmarked) [Compound 3-50, N-hydroxy-2-(4-(2-methoxyethoxy)phenyl)-2-phenylacetamide] showed a pIC50 of over 6.00.

Compound `Cc1noc(C)c1COc1ccc(C(C(=O)NO)c2ccccc2)cc1` (centres unmarked) [Compound 3-51, 2-(4-((3,5-dimethylisoxazol-4-yl)methoxy)phenyl)-N-hydroxy-2-phenylacetamide] gave a pIC50 of over 6.00.

In the case of `CC(C)=CCOc1ccc(C(C(=O)NO)c2ccccc2)cc1` (centres unmarked) [Compound 3-52, N-hydroxy-2-(4-(3-methylbut-2-enyloxy)phenyl)-2-phenylacetamide], the pIC50 was over 6.00.

As for `O=C(NO)C(c1ccccc1)c1ccc(OC2CCCC2)cc1` (centres unmarked) [Compound 3-53, 2-(4-(cyclopentyloxy)phenyl)-N-hydroxy-2-phenylacetamide], the pIC50 is over 6.00.

For `CC(C)CCOc1ccc(C(C(=O)NO)c2ccccc2)cc1` (centres unmarked) [Compound 3-54, N-hydroxy-2-(4-(isopentyloxy)phenyl)-2-phenylacetamide], the pIC50 was 4.82 to 6.00.

With `CCC(CC)COc1ccc(C(C(=O)NO)c2ccccc2)cc1` (centres unmarked) [Compound 3-55, 2-(4-(2-ethylbutoxy)phenyl)-N-hydroxy-2-phenylacetamide], the pIC50 is over 6.00.

For the origin of these results see US9096565B2, “Inhibitors of histone deacetylase” (MethylGene Inc., priority 2007, dated 2015).
